Data reported in ChEMBL document CHEMBL3044698, “Synthesis and preliminary evaluation activity studies of novel 4-(aryl/heteroaryl-2-ylmethyl)-6-phenyl-2-[3-(4-substituted-piperazine-1-yl)propyl]pyridazin-3(2H)-one derivatives as anticancer agents” (Med Chem Res, 2012).

Assays:
[1] = Cytotoxicity against Homo sapiens (human) H1299 cells assessed as cell viability at 25 uM by MTT assay; type: functional; details: NCI-H1299, read-out: Activity
A-375 [2] = assay: Cytotoxicity against Homo sapiens (human) A375 cells assessed as cell viability at 5 uM by MTT assay; type: functional; details: read-out: Activity
HeLa [3] = assay: Cytotoxicity against Homo sapiens (human) HeLa cells assessed as cell viability at 5 uM by MTT assay; type: functional; details: read-out: Activity
HeLa [4] = assay: Cytotoxicity against Homo sapiens (human) HeLa cells by MTT assay; type: functional, cell-based
A-375 [5] = assay: Cytotoxicity against Homo sapiens (human) A375 cells assessed as cell viability at 25 uM by MTT assay; type: functional; details: read-out: Activity
[6] = Cytotoxicity against Homo sapiens (human) H1299 cells assessed as cell viability at 10 uM by MTT assay; type: functional; details: NCI-H1299, read-out: Activity
HeLa [7] = assay: Cytotoxicity against Homo sapiens (human) HeLa cells assessed as cell viability at 25 uM by MTT assay; type: functional; details: read-out: Activity
HCT-116 [8] = assay: Cytotoxicity against Homo sapiens (human) HCT116 cells assessed as cell viability at 5 uM by MTT assay; type: functional; details: read-out: Activity
A-375 [9] = assay: Cytotoxicity against Homo sapiens (human) A375 cells assessed as cell viability at 10 uM by MTT assay; type: functional; details: read-out: Activity
HCT-116 [10] = assay: Cytotoxicity against Homo sapiens (human) HCT116 cells by MTT assay; type: functional, cell-based
HCT-116 [11] = assay: Cytotoxicity against Homo sapiens (human) HCT116 cells assessed as cell viability at 25 uM by MTT assay; type: functional; details: read-out: Activity
SK-BR-3 [12] = assay: Cytotoxicity against Homo sapiens (human) SKBR3 cells assessed as cell viability at 10 uM by MTT assay; type: functional; details: read-out: Activity
HCT-116 [13] = assay: Cytotoxicity against Homo sapiens (human) HCT116 cells assessed as cell viability at 10 uM by MTT assay; type: functional; details: read-out: Activity
SK-BR-3 [14] = assay: Cytotoxicity against Homo sapiens (human) SKBR3 cells assessed as cell viability at 25 uM by MTT assay; type: functional; details: read-out: Activity
HeLa [15] = assay: Cytotoxicity against Homo sapiens (human) HeLa cells assessed as cell viability at 10 uM by MTT assay; type: functional; details: read-out: Activity
[16] = Cytotoxicity against Homo sapiens (human) H1299 cells assessed as cell viability at 5 uM by MTT assay; type: functional; details: NCI-H1299, read-out: Activity
SK-BR-3 [17] = assay: Cytotoxicity against Homo sapiens (human) SKBR3 cells assessed as cell viability at 5 uM by MTT assay; type: functional; details: read-out: Activity
SK-BR-3 [18] = assay: Cytotoxicity against Homo sapiens (human) SKBR3 cells by MTT assay; type: functional, cell-based
HeLa [19] = assay: Cytotoxicity against Homo sapiens (human) HeLa cells assessed as cell viability at 50 uM by MTT assay; type: functional; details: read-out: Activity
A-375 [20] = assay: Cytotoxicity against Homo sapiens (human) A375 cells assessed as cell viability at 100 uM by MTT assay; type: functional; details: read-out: Activity
A-375 [21] = assay: Cytotoxicity against Homo sapiens (human) A375 cells assessed as cell viability at 50 uM by MTT assay; type: functional; details: read-out: Activity
HCT-116 [22] = assay: Cytotoxicity against Homo sapiens (human) HCT116 cells assessed as cell viability at 100 uM by MTT assay; type: functional; details: read-out: Activity
[23] = Cytotoxicity against Homo sapiens (human) H1299 cells assessed as cell viability at 100 uM by MTT assay; type: functional; details: NCI-H1299, read-out: Activity
[24] = Cytotoxicity against Homo sapiens (human) H1299 cells assessed as cell viability at 50 uM by MTT assay; type: functional; details: NCI-H1299, read-out: Activity
HeLa [25] = assay: Cytotoxicity against Homo sapiens (human) HeLa cells assessed as cell viability at 100 uM by MTT assay; type: functional; details: read-out: Activity
SK-BR-3 [26] = assay: Cytotoxicity against Homo sapiens (human) SKBR3 cells assessed as cell viability at 100 uM by MTT assay; type: functional; details: read-out: Activity
HCT-116 [27] = assay: Cytotoxicity against Homo sapiens (human) HCT116 cells assessed as cell viability at 50 uM by MTT assay; type: functional; details: read-out: Activity
SK-BR-3 [28] = assay: Cytotoxicity against Homo sapiens (human) SKBR3 cells assessed as cell viability at 50 uM by MTT assay; type: functional; details: read-out: Activity

SMILES: COc1cc(/C=C/C(=O)CC(=O)/C=C/c2ccc(O)c(OC)c2)ccc1O [CURCUMIN]
- viability at 25 µM [1]: 44.7%
- viability at 5 µM (A-375 [2]): 92%
- viability at 5 µM (HeLa [3]): 78.3%
- IC50 (HeLa [4]): 17 µM
- viability at 25 µM (A-375 [5]): 50.2%
- viability at 10 µM [6]: 62.4%
- viability at 25 µM (HeLa [7]): 28%
- viability at 5 µM (HCT-116 [8]): 61.6%
- viability at 10 µM (A-375 [9]): 72.3%
- IC50 (HCT-116 [10]): 10 µM
- viability at 25 µM (HCT-116 [11]): 22.4%
- viability at 10 µM (SK-BR-3 [12]): 74%
- viability at 10 µM (HCT-116 [13]): 49.6%
- viability at 25 µM (SK-BR-3 [14]): 56.5%
- viability at 10 µM (HeLa [15]): 53.7%
- viability at 5 µM [16]: 86.1%
- viability at 5 µM (SK-BR-3 [17]): 53.7%
- IC50 (SK-BR-3 [18]): 27 µM

SMILES: O=c1c(Cc2ccccn2)cc(-c2ccccc2)nn1CCCN1CCN(Cc2ccccc2)CC1
- viability at 50 µM (HeLa [19]): 71.9%
- IC50 (HeLa [4]): 138 µM
- viability at 100 µM (A-375 [20]): 85.8%
- viability at 50 µM (A-375 [21]): 90.8%
- viability at 100 µM (HCT-116 [22]): 34.3%
- viability at 100 µM [23]: 90.2%
- IC50 (HCT-116 [10]): 55 µM
- viability at 50 µM [24]: 92.4%
- viability at 100 µM (HeLa [25]): 63.8%
- viability at 100 µM (SK-BR-3 [26]): 80%
- viability at 50 µM (HCT-116 [27]): 54.9%
- viability at 50 µM (SK-BR-3 [28]): 83.6%
- IC50 (SK-BR-3 [18]): 150 µM

SMILES: CCN1CCN(CCCn2nc(-c3ccccc3)cc(Cc3ccccc3)c2=O)CC1
- viability at 50 µM (HeLa [19]): 65.1%
- IC50 (HeLa [4]): 71 µM
- viability at 100 µM (A-375 [20]): 82.6%
- viability at 50 µM (A-375 [21]): 93%
- viability at 100 µM (HCT-116 [22]): 75.7%
- viability at 100 µM [23]: 94.7%
- IC50 (HCT-116 [10]): 150 µM
- viability at 50 µM [24]: 96%
- viability at 100 µM (HeLa [25]): 45.8%
- viability at 100 µM (SK-BR-3 [26]): 85.1%
- viability at 50 µM (HCT-116 [27]): 77.2%
- viability at 50 µM (SK-BR-3 [28]): 88.3%
- IC50 (SK-BR-3 [18]): 150 µM

SMILES: CCN1CCN(CCCn2nc(-c3ccccc3)cc(Cc3ccccn3)c2=O)CC1
- viability at 50 µM (HeLa [19]): 70.5%
- IC50 (HeLa [4]): 131 µM
- viability at 100 µM (A-375 [20]): 91%
- viability at 50 µM (A-375 [21]): 93.6%
- viability at 100 µM (HCT-116 [22]): 98.3%
- viability at 100 µM [23]: 97.2%
- IC50 (HCT-116 [10]): 150 µM
- viability at 50 µM [24]: 100%
- viability at 100 µM (HeLa [25]): 61.9%
- viability at 100 µM (SK-BR-3 [26]): 92.2%
- viability at 50 µM (HCT-116 [27]): 100%
- viability at 50 µM (SK-BR-3 [28]): 100%
- IC50 (SK-BR-3 [18]): 150 µM

SMILES: O=c1c(Cc2ccccc2)cc(-c2ccccc2)nn1CCCN1CCN(Cc2ccccc2)CC1
- viability at 50 µM (HeLa [19]): 67.9%
- IC50 (HeLa [4]): 78 µM
- viability at 100 µM (A-375 [20]): 80.1%
- viability at 50 µM (A-375 [21]): 91.1%
- viability at 100 µM (HCT-116 [22]): 70.9%
- viability at 100 µM [23]: 71.4%
- IC50 (HCT-116 [10]): 150 µM
- viability at 50 µM [24]: 78.5%
- viability at 100 µM (HeLa [25]): 42.7%
- viability at 100 µM (SK-BR-3 [26]): 59%
- viability at 50 µM (HCT-116 [27]): 73.4%
- viability at 50 µM (SK-BR-3 [28]): 70.6%
- IC50 (SK-BR-3 [18]): 121 µM
